Assay: xn = mol fraction of the nth substance listed

CCC(=O)O + NC=O
viscosity [mPa·s]
Conditions	298.15 K	303.15 K	308.15 K	313.15 K
101 kPa, x2 = 0.1002	2.15	–	–	1.52
101 kPa, x2 = 0.1949	3.368	–	–	2.231
101 kPa, x2 = 0.2992	4.445	–	–	2.877
101 kPa, x2 = 0.3979	5.67	–	–	3.546
101 kPa, x2 = 0.4976	6.48	–	–	4.16
101 kPa, x2 = 0.5987	6.98	–	–	4.528
101 kPa, x2 = 0.7338	7.19	–	–	4.708
101 kPa, x2 = 0.8115	6.92	–	–	4.48
101 kPa, x2 = 0.9101	5.59	–	–	3.551
101 kPa, x2 = 0.976	3.838	–	–	–
101.33 kPa, x2 = 0.0769	1.4	1.28	1.19	1.09
101.33 kPa, x2 = 0.1507	1.89	1.7	1.57	1.46
101.33 kPa, x2 = 0.2323	2.54	2.25	2.05	1.89
101.33 kPa, x2 = 0.3109	3.21	2.78	2.5	2.27
101.33 kPa, x2 = 0.393	3.83	3.28	2.94	2.64
101.33 kPa, x2 = 0.4098	3.92	3.37	3.01	2.69
101.33 kPa, x2 = 0.4649	4.24	3.62	3.23	2.89
101.33 kPa, x2 = 0.5404	4.48	3.83	3.41	3.03
101.33 kPa, x2 = 0.6138	4.8	4.06	3.6	3.2
101.33 kPa, x2 = 0.6916	4.7	4.01	3.57	3.18
101.33 kPa, x2 = 0.7633	4.49	3.84	3.43	3.07
101.33 kPa, x2 = 0.8461	4.22	3.63	3.26	2.93
101.33 kPa, x2 = 0.9226	3.75	3.25	2.94	2.66

Nc1cccc(Cl)c1 + CCC(C)O
viscosity [mPa·s], 101 kPa
Conditions	x1 = 0.0889	x1 = 0.1799	x1 = 0.2733	x1 = 0.3691	x1 = 0.4674	x1 = 0.5683	x1 = 0.6719	x1 = 0.7783	x1 = 0.8876
303.15 K	2.756	2.919	3.087	3.256	3.422	3.585	3.744	3.904	4.07
308.15 K	2.318	2.483	2.65	2.817	2.983	3.148	3.313	3.48	3.654
313.15 K	2.001	2.157	2.312	2.467	2.623	2.779	2.937	3.097	3.261
318.15 K	1.706	1.857	2.003	2.147	2.29	2.434	2.579	2.727	2.874

CCC(=O)O + Nc1ccccc1
Conditions	viscosity [mPa·s]
298.15 K, 101 kPa, x1 = 0.0996	4.218
298.15 K, 101 kPa, x1 = 0.2015	4.652
298.15 K, 101 kPa, x1 = 0.2966	5.177
298.15 K, 101 kPa, x1 = 0.388	5.87
298.15 K, 101 kPa, x1 = 0.4955	6.898
298.15 K, 101 kPa, x1 = 0.5962	7.775
298.15 K, 101 kPa, x1 = 0.716	7.294
298.15 K, 101 kPa, x1 = 0.7994	5.282
298.15 K, 101 kPa, x1 = 0.895	2.477
308.15 K, 101.33 kPa, x1 = 0.1243	2.912
308.15 K, 101.33 kPa, x1 = 0.2382	3.203
308.15 K, 101.33 kPa, x1 = 0.3507	3.59
308.15 K, 101.33 kPa, x1 = 0.4545	3.971
308.15 K, 101.33 kPa, x1 = 0.5568	4.468
308.15 K, 101.33 kPa, x1 = 0.6544	4.762
308.15 K, 101.33 kPa, x1 = 0.7452	4.169
308.15 K, 101.33 kPa, x1 = 0.7903	3.402
308.15 K, 101.33 kPa, x1 = 0.8345	2.792
308.15 K, 101.33 kPa, x1 = 0.8774	2.008
308.15 K, 101.33 kPa, x1 = 0.918	1.561
308.15 K, 101.33 kPa, x1 = 0.9595	1.168

O=[N+]([O-])[O-].[Li+] + O
100 kPa
Conditions	viscosity [mPa·s]
298.11 K, x1 = 0.0088	0.9305
298.18 K, x1 = 0.00475	0.9105
298.35 K, x1 = 0.01898	0.9846
298.45 K, x1 = 0.02699	1.04
306.75 K, x1 = 0.02699	0.8753
307.65 K, x1 = 0.01898	0.8088
307.85 K, x1 = 0.00475	0.746
308.95 K, x1 = 0.0088	0.7411
